Tested on: generalized anxiety and/or post-traumatic stress disorder (PTSD)
Assay: Inhaled dry powder given to subjects for generalized anxiety and/or PTSD
Format: in vivo, human
Details: encapsulated by HPMCAS, inhaler
Method: Three male subjects and one subject were administered doses of 5 mg, 10 mg, and 15 mg of psilocybin. Each individual dosage level was administered about three weeks apart for the treatment of generalized anxiety and/or post-traumatic stress disorder (PTSD). In a separate experiment, the subjects were administered doses of 1 mg, 5 mg, and 10 mg of 4-AoC-DMT (O-Acetylpsilocin). Each individual dosage level was administered about three weeks apart for the treatment of generalized anxiety and/or post-traumatic stress disorder (PTSD). The dry powder pharmaceutical compositions comprised psilocybin or 4-AoC-DMT encapsulated by HPMCAS using the methods described herein (e.g., spay drying). The encapsulated dry powder was administered with an inhaler.

SMILES | adverse effects noted (4-AoC-DMT 1 mg and 5 mg, four subjects) | adverse effects noted (4-AoC-DMT 10 mg, indicated by 3 male patients and 1 patient) | effect on anxiety in the subjects (doses of 1 mg and 5 mg of 4-AoC-DMT, each about three weeks apart, three male subjects and one subject) | adverse effects noted (psilocybin 5 mg, 10 mg and 15 mg, four subjects)
CC(=O)Oc1cccc2[nH]cc(CCN(C)C)c12 [4-AoC-DMT, 4-Acetoxy-N,N-dimethyltryptamine] | No adverse effects | too much | reduced anxiety | –
CN(C)CCc1c[nH]c2cccc(OP(=O)(O)O)c12 [psilocybin, 4-phosphoryloxy-N,N-dimethyltryptamine] | – | – | – | No adverse effects

Reference: US20260240763A1, “Inhalable Serotonin Receptor Agonist Formulations” (Pinata Holdings Inc., priority 2022, published 2026)
